Test results taken from patent US9394306B2, “Pyrazoline dione derivatives as NADPH oxidase inhibitors” (GENKYOTEX SA, priority 2009, dated 2016).

What was measured:
collagen deposition [1] = assay: Bleomycin-induced lung injury in mice, curative model (SIRCOL collagen assay); type: in vivo
Method: (§1) Control animals are subjected to the same protocol but received the same volume of intratracheal saline instead of BLM. Tracheal instillation is carried out under ketamin (80 mg/kg of body weight, i.p.) and xylazine (20 mg/kg de body weight, i.p.) anesthesia.
(§2) […] after endotracheal BLM or saline, the animals are killed by a lethal injection of sodium pentobarbital followed by exsanguination of abdominal aorta. Lungs are weighed and processed separately for biochemical (n=10 lungs per group) and histological studies (n=5 per group) as indicated below. The animals are randomly divided into four groups: control-saline (n=8) and control+BLM (n=15); Compound Dose 1+BLM (n=15) and Compound Dose 2+BLM (N=15). Treatments vehicle or compounds are administered for 5 weeks.
(§3) Mice are treated by daily oral administration of compound according to the invention or saline/control starting on day 0 for five weeks in the preventive model and starting on day 10 up to five weeks for the curative model. Whole lung accumulation of acid-soluble collagen is analyzed by Sircol assay.
The broad lines of the above protocol were followed. At day 0, animals received an intratracheal injection of 0.0125 UI of bleomycin (40 μl) to produce pulmonary lesions. Curative treatment group was orally administered a compound of the invention once a day for 3.5 weeks starting from day 10 to day 35. The animals are randomly divided into six groups: control-saline (n=8); 2 groups control+BLM (n=13); Compound 3 of the invention per os 40 mg/kg+BLM (n=13); Compound 3 of the invention per os 10 mg/kg+BLM (n=13) and Pirfenidone (AQCHEM, ref P1002) at 100 mg/kg per os+BLM (n=13). One bleomycin control group was stopped at day 10, the animals were killed and collagen levels were measured. For the other groups, 35 days after endotracheal BLM or saline, the animals are killed and lungs are processed as indicated above for quantification of collagen deposition and lung inflammation as indicated above. […]

collagen deposition [2] = assay: Bleomycin-induced lung injury in mice, preventive model (SIRCOL collagen assay); type: in vivo; settings: day 35
Method: as §1, §2, §3
The broad lines of the above protocol were followed. […] 35 days after endotracheal BLM or saline, the animals are killed and lungs are processed as indicated above for quantification of collagen deposition and lung inflammation by SIRCOL assay (TebuBio, ref S1000).

NOX activity = tested on: T1, NOX activity; assay: Amplex Red measurement of extracellular hydrogen peroxide (NOX activity) in DMSO-differentiated HL60 cells; type: cell-based, Human; settings: DPI 10 μM, 'usually'
T1 construct: rows headed: Residual activity of DPI-treated cells (NOX activity, % of control cells); other: Amplex Red, DPI 10 μM, 'usually'
Method: Human acute myeloid leukemia cell line HL-60 was cultured in RPMI 1640 (Invitrogen) supplemented with 10% heat-inactivated calf serum, 2 mM glutamine, 100 U/mL penicillin (Sigma), and 100 μg streptomycin (Sigma) at 37° C. under a humidified atmosphere of 5% CO2. HL60 differentiation to the neutrophil phenotype was triggered by adding Me2SO (final concentration 1.25% v/v for 6 days) to the culture medium.
Extracellular hydrogen peroxide was measured using Amplex UltraRed (Molecular Probes). Cells were trypsinized (1× Trypsin-EDTA), collected by centrifugation, and resuspended in HBSS supplemented with 1% glucose. Cells were seeded into black 96-well plates at a density of 50,000 cells in 200 μl testing buffer (HBSS 1% glucose containing 0.005 U/mL horseradish peroxidase (Roche) and 50 μM Amplex Red in the presence or absence of compounds according to the invention. As a control, DPI was included at a final concentration of 10 μM The plates were placed in the fluorescent Optima Fluorescent plate reader and kept at 37° C. during 20 min. Fluorescence was measured for […] with excitation and emission wavelengths of 544 nm and 590 nm respectively. NOX activities were expressed as % of the activity in control cells. Residual activity of DPI-treated cells was usually <10%.

NOX activities [3] = assay: Chemiluminescence (luminol) ROS measurement in cells; type: cell-based; settings: 'usually'
Method: ROS was measured using the chemiluminescent probe luminol. Cells were cultured and plated as for Amplex Red except that the Amplex Red agent was replaced by 10 μg/mL luminol (Sigma 09235). Light emission was recorded continuously at 37° C. for 60 minutes using the luminescence function of the FluoStar Optima fluorescent plate reader. The mean of the four blank values was subtracted from each corrected value for each time point. NOX activities were expressed as % of the activity in control cells. Residual activity of DPI-treated cells was usually <10%.

NOX activities [4] = assay: H2DCF-DA ROS measurement in TGF-β stimulated HUVEC; type: cell-based, Human; settings: 'usually'
Method: HUVEC are cultured in endothelial basal medium supplemented with hydrocortisone (1 μg/mL, CalbioChem), bovine brain extract (12 μg/mL), gentamicin (50 μg/mL, CalbioChem), amphotericin B (50 ng/mL, CalBioChem EGF (10 ng/mL, and 10% FCS until the fourth passage. When the fifth passage was started, cells were cultured with a lower concentration of FCS (2%) in the absence of EGF, if not indicated otherwise. All experiments were done with cells of the fifth passage. The cells were incubated with O×LDL (oxidized low-density lipoprotein) or its buffer as control for 24 h, before detection of O2^− formation.
HUVEC were plated on coverslips and made quiescent overnight in 0.5% BSA before stimulation with TGF-β. Cells were loaded for 10 minutes with 5 μM CM-H2DCFDA in phenol-red-free medium in the dark and then treated with TGF-β (R&D Systems) in the presence or absence of compounds according to the invention. Cells were then visualized by immunofluorescence microscopy after fixation and staining of the nuclei with DAPI or examined live using confocal microscopy. DCF fluorescence was visualized at an excitation wavelength of 488 nm and emission at 515 to 540 nm. […] For calculation, the absorbance at […] was normalized to absorbance at […] for each individual well. […] NOX activities were expressed as % of the activity in control cells. […]

NOX activities [5] = assay: Nitroblue tetrazolium (NBT) superoxide test in cells; type: cell-based; settings: DPI 10 μM, 'usually'
Method: Intracellular and extracellular superoxide was measured by a colorimetric technique using a quantitative nitroblue tetrazolium (NBT) test. SOD-inhibitable conversion of NBT to formazan, a fine blue precipitate, in the presence of superoxide anion was measured using Fluostar Optima spectrometer (BMG labtech). Following incubation with appropriate stimuli, cells were trypsinized (1× Trypsin-EDTA), collected by centrifugation, and washed with PBS to remove medium. 5×10^5 cells were plated on 48-well plates and incubated in Hank's balanced salt solution containing 0.5 mg/mL NBT with or without 800 U/mL SOD in the presence or absence of compounds according to the invention. As a control, DPI was included at a final concentration of 10 μM. After 2.5 h, cells were fixed and washed with methanol to remove non reduced NBT. The reduced formazan was then dissolved in 230 μl of 2M potassium hydroxide and in 280 μl of dimethylsulfoxide. The absorption was measured at 630 nm. For calculation, the absorbance at 630 nm was normalized for each individual well. The mean of the four blank values was subtracted from each corrected value for each time point. NOX activities were expressed as % of the activity in control cells. Residual activity of DPI-treated cells was usually <10%.

In the case of `O=c1c2c3n(c(=O)cc2[nH]n1-c1ccccc1Cl)CCCN(Cc1ccccc1)C3` [Compound 3, 10-benzyl-2-(2-chlorophenyl)-2,3,8,9,10,11-hexahydro-1H-pyrazolo[4′,3′:3,4]pyrido[1,2-a][1,4]diazepine-1,5(7H)-dione], the “inhibition of collagen deposition as compared to bleomycin control” value (“inhibition … compared to bleomycin control” below) (collagen deposition [1]; 10 mg/kg per os once a day from day 10 to day 35, mice) is reported as 64%, the “inhibition … compared to bleomycin control” value (collagen deposition [1]; 40 mg/kg per os once a day from day 10 to day 35, mice) is reported as 52% and the “inhibition … compared to bleomycin control” value (collagen deposition [2]; 40 mg/kg per os once a day from day 0 for five weeks) is reported as 46%.

`c1ccc([I+]c2ccccc2)cc1` [DPI, Diphenyl-iodonium] was tested, and the “Residual activity of DPI-treated cells (NOX activity, % of control cells)” value (NOX activity) was less than 10%, the “Residual activity of DPI-treated cells (NOX activity, % of control cells)” value (NOX activities [3]) was less than 10% and the “Residual activity of DPI-treated cells (NOX activity, % of control cells)” value (NOX activities [4]) was less than 10%. The “Residual activity of DPI-treated cells (NOX activity, % of control cells)” value (NOX activities [5]) was less than 10%.

`Cc1ccc(=O)n(-c2ccccc2)c1` [Pirfenidone] was tested, and the “inhibition … compared to bleomycin control” value (collagen deposition [1]; 100 mg/kg per os once a day from day 10 to day 35, mice) was 12% and the “inhibition … compared to bleomycin control” value (collagen deposition [2]; 100 mg/kg per os once a day from day 0 for five weeks) was 45%.
